Where two headings read alike, the source gives them in different places.
Legend:
[1] = In vivo plasma pharmacokinetics in beagle dogs; details: Dog; for MRT last: read-out: MRT0-t; for MRT inf: read-out: MRT0-∞
Procedure: After dosage, blood samples were collected into heparinized tubes at 2, 5, 15, 30, 60, 120, 240, 360, 540, and 720 min for the i.v. group, and at 5, 15, 30, 60, 90, 120, 240, 360, 540, 720 and 1440 min for the i.g. group. Plasma (100 μL) was isolated from the blood sample by centrifuging at 4 °C and 6000 rpm for 3 min and then stored at − 80 °C until analysis. An aliquot of 100 μL of each plasma sample was mixed with 20 μL of internal standard working solution (200 ng/mL of caffeine). Methanol (400 μL) was then added for precipitation. After vortexing for 5 min and centrifuging at 14000 rpm for 10 min, 5 μL of the supernatant was injected for LC-MS/MS analysis.
The PK parameters were analyzed through the noncompartment model using WinNonlin 6.1 software (Pharsight Corporation, Mountain View, USA), including half-life (T1/2), the peak of the plasma concentration (Cmax), the time to peak of the plasma concentration (Tmax), the area under the plasma concentration-time curve during the period of observation (AUC0-t), the area under the plasma concentration-time curve from zero to infinity (AUC0-∞), clearance (CL), apparent volume of distribution (Vd), and the mean residence time.

TNF-α = TNF-α protein level in M1 polarized THP-1 macrophages (ELISA); format: cell-based, Human; details: 0.1 μM, 36 h
Procedure: Results are expressed as means ±S.D. (n = 3).
Human monocytic THP-1 cells were maintained in RPMI 1640 medium (Corning, USA) supplemented with 2% L-glutamine,10% fetal bovine serum (FBS), 1% penicillin/ streptomycin and […] ß-mercaptoethanol. THP-1 monocytes are differentiated into macrophages by 24 h incubation with 150 nM phorbol 12-myristate 13-acetate (PMA, Sigma, P8139) followed by 24 h incubation in RPMI medium. Macrophages were polarized in M1 macrophages by incubation with 20 ng/ml of IFN-γ (R&D system, #285-IF) and 100 ng/ml of LPS (Sigma, #8630). […] Cytokine secretion in the culture medium was assayed using an ELISA kit according to the procedure recommended by the supplier (IL-6 (MultiSciences, 70-EK106/2–96), TNFα (MultiSciences,70-EK182HS-96)).

in vivo [2] = details: mouse, iv, 1 mg/kg, I.V. 1 mg/kg; for AUC(0-inf): AUC0-∞; for AUC(0-inf) / AUC(0-t) / Cmax / MRT last / MRT inf / Tmax: mice; for AUC(0-t): AUC0-t; for MRT last: MRT0-t; for MRT inf: MRT0-∞; for half-life: T1/2, mice
SARS-CoV-2 = assay: microbe, parasite or virus in culture; format: cell-based; details: Severe acute respiratory syndrome coronavirus 2, Vero; read-out: EC50 virus entry blocking
in vivo [3] = details: Sprague-Dawley, rat, lung, po
Procedure: The male mice (20–25 g) and Sprague-Dawley rats (180–220 g) were provided by Laboratory Animal Center of Anhui Medical University (Hefei, China), and the beagle dogs were obtained from Nanjing Bosgene Biotech Co., Ltd. All the animals were housed under control conditions (temperature 23 ± 2 °C, humidity 50% ± 5%, 12 h dark/light cycle) with standardized diet and acclimatized for 7 days, prior to the experiments.
Seventy-two mice or rats were randomly and equally divided into two groups. […] Tissues (liver, lung, and kidney) were promptly harvested at 1, 2, 4, 6, 9, 12, 24, 48, 72, and 144 h. Each tissue sample was homogenized (Tissue sample:saline ratio of 1:5, w/v). Tissue samples were stored at − 80 °C until further analysis. The preparation process for analysis was the same as described above for plasma.
The LC-MS/MS system consisted of a SHIMADZU LC-30 AD series HPLC system (Shimadzu, Kyoto, Japan) and API4000 triple quadrupole mass spectrometer (Applied Biosystems Sciex, Ont., Canada) with electrospray ionization (ESI) source. Separation was carried out on a C18 column (2.1 × 100 mm, 5 μm, Hanbon, Jiangsu, China) kept at 40 °C. The mobile phase consisted of water (containing 0.1% formic acid, mobile phase A) and methanol (mobile phase B) with rate set at 0.3 mL/min. The optimal gradient elution curve included 0–1.0 min, 10% B; a linear increase to 90% a within 0.5 min; 90% B for 3.5 min; a linear decrease to 10% B within 0.5 min. 10% B for 1.5 min; 7.00 min, stop.
LC-MS/MS was performed in the positive and multiple reaction monitoring (MRM) mode.

[4] = mice

In the case of `CC[C@H]1CN2CCc3cc(OC)c(OC)cc3[C@@H]2C[C@@H]1C[C@H]1NCCc2cc(OC)c(OC)cc21` [Emetine], the AUMC0-t ([1]; I.V. 1 mg/kg) is reported as 1331 ± 695 hr*hr.*ng/mL, the “AUMC0-∞” value ([1]; I.V. 1 mg/kg) is reported as 1626 ± 679 hr*hr.*ng/mL and the AUMC0-t ([1]; P.O. 5 mg/kg) is reported as 12,464 ± 9313 hr*hr.*ng/mL. The “AUMC0-∞” value ([1]; P.O. 5 mg/kg) was 19,162 ± 13,435 hr*hr.*ng/mL, the Cl ([1]; P.O. 5 mg/kg) was 72.95 ± 62.47 mL/min/kg and the Vz ([1]; P.O. 5 mg/kg) was 51,033 ± 45,021 mL/kg. For the same molecule, the AUC(0-inf) ([1]; beagle, iv, I.V. 1 mg/kg) was 468 ± 298 ng·h/mL, the AUC(0-t) ([1]; beagle, iv, I.V. 1 mg/kg) was 449 ± 298 ng·h/mL and the C0 ([1]; beagle, iv, I.V. 1 mg/kg) was 351 ± 44 ng/mL. It also gave a Cmax ([1]; beagle, iv, I.V. 1 mg/kg) of 260 ± 66.7 ng/mL, a Tmax ([1]; beagle, iv, I.V. 1 mg/kg) of 0.03 h and a clearance ([1]; beagle, iv, I.V. 1 mg/kg) of 45.8 mL/min/kg. It also gave a half-life ([1]; beagle, iv, I.V. 1 mg/kg) of 2.45 ± 0.91 h, an MRT last ([1]; beagle, iv, I.V. 1 mg/kg) of 3.2 ± 0.78 h and an MRT inf ([1]; beagle, iv, I.V. 1 mg/kg) of 3.82 ± 0.86 h. The Vd ([1]; beagle, iv, I.V. 1 mg/kg, read-out: Vz) was 9.55 ± 5.26 L/kg, the AUC(0-inf) ([1]; beagle, po, P.O. 5 mg/kg) was 1740 ± 1080 ng·h/mL and the AUC(0-t) ([1]; beagle, po, P.O. 5 mg/kg) was 1550 ± 964 ng·h/mL. The Cmax ([1]; beagle, po, P.O. 5 mg/kg) was 245 ± 164 ng/mL, the Tmax ([1]; beagle, po, P.O. 5 mg/kg) was 0.25 h and the half-life ([1]; beagle, po, P.O. 5 mg/kg) was 7.99 ± 0.35 h. The bioavailability ([1]; beagle, po, P.O. 5 mg/kg vs I.V. 1 mg/kg, read-out: F (oral bioavailability)) was 74.2 ± 46.2%, the MRT last ([1]; beagle, po, P.O. 5 mg/kg) was 7.63 ± 1.32 h and the MRT inf ([1]; beagle, po, P.O. 5 mg/kg) was 10.7 ± 1.21 h. The TNF-α expression (TNF-α) was “moderate effect”, the AUC(0-inf) (in vivo [2]; male, Kidney) was 99100 ng·h/mL and the AUC(0-inf) (in vivo [2]; male, Lung) was 65400 ng·h/mL. The AUC(0-t) (in vivo [2]; Kidney) was 37000 ng·h/mL, the AUC(0-t) (in vivo [2]; Liver) was 41300 ng·h/mL and the AUC(0-t) (in vivo [2]; Lung) was 35400 ng·h/mL. The AUC(0-inf) (in vivo [2]; Liver) was 139000 ng·h/mL, the Cmax (in vivo [2]; Kidney) was 4550 ng/mL and the Cmax (in vivo [2]; Liver) was 4420 ng/mL. It also gave a Cmax (in vivo [2]; Lung) of 8580 ng/mL, an MRT last (in vivo [2]; Kidney) of 5.23 h and an MRT last (in vivo [2]; Liver) of 6.67 h. For the same molecule, the MRT last (in vivo [2]; Lung) was 5.13 h, the MRT inf (in vivo [2]; Kidney) was 28.4 h and the MRT inf (in vivo [2]; Liver) was 28 h. The MRT inf (in vivo [2]; Lung) was 15.9 h, the half-life (in vivo [2]; Kidney) was 20.9 h and the half-life (in vivo [2]; Liver) was 17.3 h. The half-life (in vivo [2]; Lung) was 11.5 h, the Tmax (in vivo [2]; Kidney) was 0.5 h and the Tmax (in vivo [2]; Liver) was 9 h. For the same molecule, the Tmax (in vivo [2]; Lung) was 0.03 h, the EC50 (SARS-CoV-2) was 19 nM and the Tmax (in vivo [3]; 1 mg/kg) was 12 h. It also gave a concentration at 12 h (in vivo [3]; 1 mg/kg) of 1610 nM, a concentration at 72 h (in vivo [3]; 1 mg/kg) of 360 nM and a concentration at 1 h (in vivo [3]; 1 mg/kg/day) of 5000 to 6000 nM. It also gave a concentration at 72 h (in vivo [3]; 1 mg/kg/day) of 4890 nM, a Lung concentration ([4]; 1 mg/kg I.V. (12 h value of Table s2)) of 3.8 µM and a Kidney concentration ([4]; I.V. 1 mg/kg, 0.033 h) of 8.52 ± 1.25 µM. For the same molecule, the Liver concentration ([4]; I.V. 1 mg/kg, 0.033 h) was 4.11 ± 1.25 µM, the Plasma concentration ([4]; I.V. 1 mg/kg, 0.033 h) was 150 ± 60 nM and the Kidney concentration ([4]; I.V. 1 mg/kg, 0.083 h) was 8.04 ± 0.57 µM. For the same molecule, the Liver concentration ([4]; I.V. 1 mg/kg, 0.083 h) was 3.05 ± 0.23 µM, the Lung concentration ([4]; I.V. 1 mg/kg, 0.083 h) was 16.5 ± 1.59 µM and the Plasma concentration ([4]; I.V. 1 mg/kg, 0.083 h) was 110 ± 20 nM. The Kidney concentration ([4]; I.V. 1 mg/kg, 0.5 h) was 9.48 ± 1.10 µM, the Liver concentration ([4]; I.V. 1 mg/kg, 0.5 h) was 5.01 ± 1.13 µM and the Lung concentration ([4]; I.V. 1 mg/kg, 0.5 h) was 10.3 ± 1.45 µM. The Plasma concentration ([4]; I.V. 1 mg/kg, 0.5 h) was 40 ± 20 nM, the Kidney concentration ([4]; I.V. 1 mg/kg, 1 h) was 9.24 ± 0.44 µM and the Liver concentration ([4]; I.V. 1 mg/kg, 1 h) was 4.78 ± 0.43 µM. For the same molecule, the Lung concentration ([4]; I.V. 1 mg/kg, 1 h) was 7.73 ± 1.22 µM, the Plasma concentration ([4]; I.V. 1 mg/kg, 1 h) was 30 ± 6 nM and the Kidney concentration ([4]; I.V. 1 mg/kg, 2 h) was 9.04 ± 0.15 µM. It also gave a Liver concentration ([4]; I.V. 1 mg/kg, 2 h) of 6.12 ± 1.37 µM, a Lung concentration ([4]; I.V. 1 mg/kg, 2 h) of 7.12 ± 2.30 µM and a Plasma concentration ([4]; I.V. 1 mg/kg, 2 h) of 12 ± 3 nM. It also gave a Kidney concentration ([4]; I.V. 1 mg/kg, 4 h) of 6.16 ± 0.77 µM, a Liver concentration ([4]; I.V. 1 mg/kg, 4 h) of 6.46 ± 0.57 µM and a Lung concentration ([4]; I.V. 1 mg/kg, 4 h) of 5.85 ± 1.20 µM. It also gave a Plasma concentration ([4]; I.V. 1 mg/kg, 4 h) of 7 ± 1 nM, a Liver concentration ([4]; I.V. 1 mg/kg, 6 h) of 6.87 ± 0.65 µM and a Lung concentration ([4]; I.V. 1 mg/kg, 6 h) of 5.42 ± 0.13 µM. It also gave a Plasma concentration ([4]; I.V. 1 mg/kg, 6 h) of 9 ± 4 nM, a Kidney concentration ([4]; I.V. 1 mg/kg, 9 h) of 5.96 ± 0.76 µM and a Liver concentration ([4]; I.V. 1 mg/kg, 9 h) of 9.22 ± 0.81 µM. The Lung concentration ([4]; I.V. 1 mg/kg, 9 h) was 5.63 ± 1.00 µM, the Plasma concentration ([4]; I.V. 1 mg/kg, 9 h) was 8 ± 4 nM and the Kidney concentration ([4]; I.V. 1 mg/kg, 12 h) was 4.29 ± 0.79 µM. The Liver concentration ([4]; I.V. 1 mg/kg, 12 h) was 8.17 ± 1.46 µM, the Lung concentration ([4]; I.V. 1 mg/kg, 12 h) was 3.77 ± 0.96 µM and the Plasma concentration ([4]; I.V. 1 mg/kg, 12 h) was 7 ± 5 nM. The Kidney concentration ([4]; I.V. 1 mg/kg, 48 h) was 0.879 ± 0.278 µM, the Liver concentration ([4]; I.V. 1 mg/kg, 48 h) was 1.67 ± 0.872 µM and the Lung concentration ([4]; I.V. 1 mg/kg, 48 h) was 1.67 ± 0.28 µM. It also gave a Liver concentration ([4]; I.V. 1 mg/kg, 72 h) of 0.620 ± 0.024 µM, a Lung concentration ([4]; I.V. 1 mg/kg, 72 h) of 0.852 ± 0.075 µM and a Kidney concentration ([4]; I.V. 1 mg/kg, 144 h) of 0.174 ± 0.018 µM. For the same molecule, the Liver concentration ([4]; I.V. 1 mg/kg, 144 h) was 0.129 ± 0.041 µM, the Lung concentration ([4]; I.V. 1 mg/kg, 144 h) was 0.263 ± 0.034 µM and the AUMC0-t ([4]; I.V. 1 mg/kg, Kidney) was 193,238 hr*hr.*ng/mL. The “AUMC0-∞” value ([4]; I.V. 1 mg/kg, Kidney) was 2,810,677 hr*hr.*ng/mL, the AUMC0-t ([4]; I.V. 1 mg/kg, Liver) was 275,511 hr*hr.*ng/mL and the “AUMC0-∞” value ([4]; I.V. 1 mg/kg, Liver) was 3,897,180 hr*hr.*ng/mL. For the same molecule, the AUMC0-t ([4]; I.V. 1 mg/kg, Lung) was 181,502 hr*hr.*ng/mL and the “AUMC0-∞” value ([4]; I.V. 1 mg/kg, Lung) was 1,038,814 hr*hr.*ng/mL.

— article PMC7700809 (Molecular Biomedicine, 2020)
